Test results reported in ChEMBL document CHEMBL5727017, “N-arylmethyl sulfonamide negative modulators of NR2A” (2018).

Test: Biological Assay: Cell Culture and plating: HEK293 cells expressing NR1/NR2A (Chantest, Cleveland, Ohio) were grown to 70-80% confluency as an adherent monolayer in standard tissue culture flasks at 37° C., 5% CO2 per supplier's instructions. NR2A expression was induced by incubation with 0.3-0.4 μg/ml tetracycline in the presence of 4 mM ARL-15896 for 18-24 hours under the same growth conditions, then transferred to 30° C. for another 3-5 hours.After induction, cell culture medium was removed and cells were rinsed once with Ca2+ and Mg2+-free Dulbecco's phosphate buffered saline. Cells were then removed from the flask using TrypLE Express (Life Technologies) according to the manufacturer's instructions and collected to 50 ml centrifuge tubes. Following two washes in Ca2+/Mg2+-free HBSS with 20 mM HEPES (HHnoCa), cells were counted and viability assessed using trypan blue. To load cells with Ca2+-sensitive dye, they were resuspended in fluo-8 plus Component B (AAT Bioquest Products) diluted in HHnoCa and incubated 15 minutes at 37° C., followed by 30 minutes at room temp (in dark). Cells were then washed and resuspended in HHnoCa to remove extracellular dye and plated in 384-well plates (Falcon, uncoated) at 20,000-30,000 cells/well in a final volume of 25 μL/well.

**Q.** With `Cc1ncc(CNC(=O)c2ccc(CNS(=O)(=O)c3c(C)noc3C)cn2)s1` as the molecule, how does the IC50 read?
**A.** 10 µM
